According to PubChem BioAssay AID1919014 (Molecular Pharmacology Branch, DTP, NCI, 2023):

Test system: NCI-H1341 complex spheroids, percent test/control
Assay: Anticancer human tumor NCI-H1341 cell line growth inhibition [AhR];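 further: spheroids exposed to agents for seven days before readout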
Conditions: for IC50: curve of first compound; for viability, T/C: stronger effect = lower value; active means viability on the fitted dose curve at most 10% of control; inactive means the rest
Outline: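 Complex tumor spheroids co-cultured with HUVEC and human MSC stroma; AhR antagonists tested in combination with standard-of-care and investigational agents. Top concentration at or near clinical Cmax (else 10 microM), half-log dilutions; growth expressed as percent test/control.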

[1] = second compound 0.1 µM, first compound 0.000949 µM
[2] = second compound 0.1 µM, first compound 0.003 µM
[3] = second compound 0.1 µM, first compound 0.00949 µM
[4] = second compound 0.1 µM, first compound 0.03 µM
[5] = second compound 0.1 µM, first compound 0.0949 µM
[6] = second compound 0.1 µM, first compound 0.3 µM
[7] = second compound 0.316 µM, first compound 0.000949 µM
[8] = second compound 0.316 µM, first compound 0.003 µM
[9] = second compound 0.316 µM, first compound 0.00949 µM
[10] = second compound 0.316 µM, first compound 0.03 µM
[11] = second compound 0.316 µM, first compound 0.0949 µM
[12] = second compound 0.316 µM, first compound 0.3 µM
[13] = second compound 1 µM, first compound 0.000949 µM
[14] = second compound 1 µM, first compound 0.003 µM
[15] = second compound 1 µM, first compound 0.00949 µM
[16] = second compound 1 µM, first compound 0.03 µM
[17] = second compound 1 µM, first compound 0.0949 µM
[18] = second compound 1 µM, first compound 0.3 µM
[19] = second compound 3.16 µM, first compound 0.000949 µM
[20] = second compound 3.16 µM, first compound 0.003 µM
[21] = second compound 3.16 µM, first compound 0.00949 µM
[22] = second compound 3.16 µM, first compound 0.03 µM
[23] = second compound 3.16 µM, first compound 0.0949 µM
[24] = second compound 3.16 µM, first compound 0.3 µM
[25] = second compound 10 µM, first compound 0.000949 µM
[26] = second compound 10 µM, first compound 0.003 µM
[27] = second compound 10 µM, first compound 0.00949 µM
[28] = second compound 10 µM, first compound 0.03 µM
[29] = second compound 10 µM, first compound 0.0949 µM
[30] = second compound 10 µM, first compound 0.3 µM

CC(C)CC(NC(=O)C(Cc1ccccc1)NC(=O)c1cnccn1)B(O)O (stereo not given) + Cc1ccccc1N=Nc1ccc(NC(=O)c2ccnn2C)c(C)c1
5.12 nM: IC50 (second compound 0.316 µM)
4.3 nM: IC50 (second compound 3.16 µM)
5.09 nM: IC50 (second compound 0.1 µM)
4.96 nM: IC50 (second compound 1 µM)
active: viability, T/C [3] 2.67% | viability, T/C [4] 0.15% | viability, T/C [5] 0.06% | viability, T/C [6] 0.19% | viability, T/C [9] 2.6% | viability, T/C [10] 0.07% | viability, T/C [11] 0.07% | viability, T/C [12] 0.15% | viability, T/C [15] 3.18% | viability, T/C [16] 0.12% | viability, T/C [17] 0.08% | viability, T/C [18] 0.18% | viability, T/C [21] 2.5% | viability, T/C [22] 0.06% | viability, T/C [23] 0.09% | viability, T/C [24] 0.2% | viability, T/C [27] 2.63% | viability, T/C [28] 0.39% | viability, T/C [29] 0.18% | viability, T/C [30] 0.31%
3.45 nM: IC50 (second compound 10 µM)
inactive: viability, T/C [1] 116% | viability, T/C [2] 90.2% | viability, T/C [7] 92.6% | viability, T/C [8] 91.1% | viability, T/C [13] 83% | viability, T/C [14] 89.7% | viability, T/C [19] 85% | viability, T/C [20] 71.6% | viability, T/C [25] 50.5% | viability, T/C [26] 62.5%

CCc1c2c(nc3ccc(O)cc13)-c1cc3c(c(=O)n1C2)COC(=O)[C@]3(O)CC + Cc1ccccc1N=Nc1ccc(NC(=O)c2ccnn2C)c(C)c1
inactive: viability, T/C [1] 107% | viability, T/C [2] 67.5% | viability, T/C [3] 53.4% | viability, T/C [4] 44.3% | viability, T/C [5] 37% | viability, T/C [6] 15.3% | viability, T/C [7] 92.9% | viability, T/C [8] 84% | viability, T/C [9] 53.2% | viability, T/C [10] 49.5% | viability, T/C [11] 40.1% | viability, T/C [12] 16.5% | viability, T/C [13] 85.5% | viability, T/C [14] 74.9% | viability, T/C [15] 50.3% | viability, T/C [16] 43.5% | viability, T/C [17] 35.5% | viability, T/C [18] 13.5% | viability, T/C [19] 75.7% | viability, T/C [20] 58.2% | viability, T/C [21] 51% | viability, T/C [22] 43.5% | viability, T/C [23] 29.7% | viability, T/C [24] 12.1% | viability, T/C [25] 54.3% | viability, T/C [26] 48.9% | viability, T/C [27] 48.4% | viability, T/C [28] 44.8% | viability, T/C [29] 22.6%
25.3 nM: IC50 (second compound 0.316 µM)
active: viability, T/C [30] 7.81%
17.2 nM: IC50 (second compound 1 µM)
11.7 nM: IC50 (second compound 3.16 µM)
9.79 nM: IC50 (second compound 10 µM)
13.1 nM: IC50 (second compound 0.1 µM)

Nc1ccccc1NC(=O)c1ccc(CNC(=O)OCc2cccnc2)cc1 + Cc1ccccc1N=Nc1ccc(NC(=O)c2ccnn2C)c(C)c1
604 nM: IC50 (second compound 0.316 µM)
active: viability, T/C (second compound 0.1 µM, first compound 10 µM) 0.66% | viability, T/C (second compound 0.316 µM, first compound 3.16 µM) 9.54% | viability, T/C (second compound 0.316 µM, first compound 10 µM) 1.08% | viability, T/C (second compound 1 µM, first compound 3.16 µM) 7.04% | viability, T/C (second compound 1 µM, first compound 10 µM) 0.78% | viability, T/C (second compound 3.16 µM, first compound 10 µM) 0.88% | viability, T/C (second compound 10 µM, first compound 10 µM) 3.01%
647 nM: IC50 (second compound 3.16 µM)
596 nM: IC50 (second compound 1 µM)
inactive: viability, T/C (second compound 0.1 µM, first compound 0.0316 µM) 91.8% | viability, T/C (second compound 0.1 µM, first compound 0.1 µM) 84.5% | viability, T/C (second compound 0.1 µM, first compound 0.316 µM) 65.2% | viability, T/C (second compound 0.1 µM, first compound 1 µM) 37.4% | viability, T/C (second compound 0.1 µM, first compound 3.16 µM) 9.11% | viability, T/C (second compound 0.316 µM, first compound 0.0316 µM) 89.9% | viability, T/C (second compound 0.316 µM, first compound 0.1 µM) 88.7% | viability, T/C (second compound 0.316 µM, first compound 0.316 µM) 70.3% | viability, T/C (second compound 0.316 µM, first compound 1 µM) 33.6% | viability, T/C (second compound 1 µM, first compound 0.0316 µM) 120% | viability, T/C (second compound 1 µM, first compound 0.1 µM) 98.6% | viability, T/C (second compound 1 µM, first compound 0.316 µM) 76.3% | viability, T/C (second compound 1 µM, first compound 1 µM) 30.1% | viability, T/C (second compound 3.16 µM, first compound 0.0316 µM) 85.9% | viability, T/C (second compound 3.16 µM, first compound 0.1 µM) 86.7% | viability, T/C (second compound 3.16 µM, first compound 0.316 µM) 62% | viability, T/C (second compound 3.16 µM, first compound 1 µM) 43.1% | viability, T/C (second compound 3.16 µM, first compound 3.16 µM) 12.5% | viability, T/C (second compound 10 µM, first compound 0.0316 µM) 49.7% | viability, T/C (second compound 10 µM, first compound 0.1 µM) 53.3% | viability, T/C (second compound 10 µM, first compound 0.316 µM) 58.7% | viability, T/C (second compound 10 µM, first compound 1 µM) 37.8% | viability, T/C (second compound 10 µM, first compound 3.16 µM) 18.8%
582 nM: IC50 (second compound 0.1 µM)
380 nM: IC50 (second compound 10 µM)
